Test results published in patent US20240082417A1, “PROTEIN-POLYMER DRUG CONJUGATES” (priority 2022, published 2024).
Non-standard residues stand in square brackets, D forms with d. Residues, ends and D or L forms follow the SMILES beside them. *: point of attachment. Dolaproine = CO[C@@H]([C@@H]1CCCN1)[C@@H](C)C(=O)O; Dil = CC[C@H](C)[C@H](NC)[C@@H](CC(=O)O)OC; NMe2Val = CC(C)[C@@H](C(=O)*)N(C)C; NH(3-hydroxypropyl) = OCCCN*

Columns and labels:
[1] = Tolerability of Auristatin F-hydroxypropylamide (MTD study); format: in vivo, mouse
Excerpt: The vehicle control group received physiological saline.

[2] = molecular target: 5T4 antigen on the cell surface (A431 cells and MDA-MB-231-5T4 OE cells) (human) (UniProt Q13641); assay: flow cytometry (MFI) on 5T4-expressing cells at 5 µg/mL, anti-Fc-FITC detection
UniProt Q13641, sequence (Q13641 32-420): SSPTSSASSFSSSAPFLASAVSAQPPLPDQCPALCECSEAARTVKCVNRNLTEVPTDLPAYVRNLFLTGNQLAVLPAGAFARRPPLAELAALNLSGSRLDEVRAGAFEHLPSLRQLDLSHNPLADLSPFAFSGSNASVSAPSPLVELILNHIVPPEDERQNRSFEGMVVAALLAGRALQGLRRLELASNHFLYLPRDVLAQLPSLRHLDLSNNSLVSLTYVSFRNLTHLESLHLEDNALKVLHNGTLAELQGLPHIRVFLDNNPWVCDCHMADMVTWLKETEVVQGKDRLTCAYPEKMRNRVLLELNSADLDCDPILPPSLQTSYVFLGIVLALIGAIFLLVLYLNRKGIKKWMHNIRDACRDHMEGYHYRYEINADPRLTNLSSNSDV

Compound	Animals survived by the end of the study (Day 21) ([1]; single IV dose 3.2 mg/kg)	Tolerability ([1]; single IV dose 4.7 mg/kg)	fold less binding than the anti-5T4 scFvFc molecules [2]
CC[C@H](C)[C@@H]([C@@H](CC(=O)N1CCC[C@H]1[C@H](OC)[C@@H](C)C(=O)N[C@@H](Cc1ccccc1)C(=O)NCCCO)OC)N(C)C(=O)[C@@H](NC(=O)[C@H](C(C)C)N(C)C)C(C)C [AF-HPA, auristatin F hydroxypropyl amide] (NMe2Val-V[Dil][Dolaproine]F-{NH(3-hydroxypropyl)})	2 out of 6	exceeded the maximum tolerated dose	–
unrelated scFvFc fusion protein	–	–	200 fold
